Holding throughout (assay type): cell-based
Test [1] deals with A. baumannii (colistin-resistant). The test is described as follows: MIC, colistin-resistant A. baumannii isolates, with and without otilonium bromide. Conditions: for MIC: Acinetobacter baumannii.
Test [2] concerns mcr-1-bearing E. coli. The test is described as follows: LIVE/DEAD cell viability assay, fluorescence microscopy. As to conditions: 8 μg/ml of colistin alone. The protocol: Fluorescence microscopy quantifies the number of live and dead cells and determines the degree of reduction in colistin concentration in the drug combination required for effective eradication of the test organism. […] However, in the presence of 20 μg/ml of otilonium bromide, 4 μg/ml of colistin eradicates >97% of the bacteria.

For test [3], the system named is mcr-1-bearing E. coli J53. The test is described as follows: Ca2+ / Mg2+ MIC-dependency in cation-supplemented MHB. Conditions: 37° C., 16 hours. The protocol:
Accordingly, the effect of divalent ions on the antibacterial activity of otilonium bromide and colistin is investigated. […] For FIGS. 5a-5b, E. coli J53 expressing MCR-1 is treated with colistin and colistin+Ob as indicated in Mueller Hinton II Broth (MHB) that is cation-adjusted; i.e., supplemented with different concentrations of Mg^2+ and Ca^2+ ions). The incubation is conducted at 37° C. for 16 hours.

The test system of test [4] is E. coli J53. The test is described as follows: MIC checkerboard dilution assay, otilonium bromide vs. colistin. As to conditions: Escherichia coli.
Test [5] concerns P. aeruginosa PAO1 and PAERC 11.603. As to the kind of experiment: Divalent ion MIC-dependency in supplemented MHB. The protocol: In FIGS. 5e and 5f, colistin MICs of P. aeruginosa PAO1 and PAERC 11.603, respectively, are determined in MHB supplemented with different Ca^2+ ion concentrations.
Accordingly, it is believed that the addition of a chelant; or a chelant for divalent ions; or a divalent cation chelant, may further improve the activity of the drug formulation, method of use/treatment, disinfection composition, etc. of the present invention.

Test [6] has as its system mcr-1-bearing E. coli. As to conditions: colistin 32 μg/ml for 24 hours; initial ~10^8 CFU/mL in saline. The protocol:
Starvation-induced bacterial sub-population tolerant cells of colistin-resistant and colistin-susceptible E. coli and A. baumannii strains are tested against the bactericidal effect of the combination of otilonium bromide and colistin. […] The incubation temperature is 37° C. Ob and colistin are added at the same time.

Values after ≈ are worked out from the molar mass of the structure shown. Where two headings read alike, the source gives them in different places. Peptide text beside a SMILES is read from it.

`CCC(C)CCCC(=O)N[C@@H](CCN)C(=O)N[C@H](C(=O)N[C@@H](CCN)C(=O)N[C@H]1CCNC(=O)[C@H]([C@@H](C)O)NC(=O)[C@H](CCN)NC(=O)[C@H](CCN)NC(=O)[C@H](CC(C)C)NC(=O)[C@@H](CC(C)C)NC(=O)[C@H](CCN)NC1=O)[C@@H](C)O` (stereo partly drawn) [Colistin] (HELM PEPTIDE1{[CCC(C)CCCC(=O)[*:2]].[Dab].T.[Dab].[Dab].[Dab].[dL].L.[Dab].[Dab].T}$PEPTIDE1,PEPTIDE1,5:R3-11:R2$$$V2.0): the “Colistin MIC, Colistin” value in test [1] (A. baumannii ABJZ-46, colistin-resistant, colistin alone) was found to be 4 µg/mL; in test [1] (A. baumannii ABJZ-50, colistin-resistant, colistin alone) it was 4 µg/mL; in test [1] (A. baumannii ABJZ-72, colistin-resistant, colistin alone), 4 µg/mL. Besides, the MIC amounted to 0.125 µg/mL in test [1] (ATCC17978, read-out: Colistin MIC, Colistin + 10 ug/ml Ob, A. baumannii ATCC17978, colistin-resistant, in the presence of 10 ug/ml Ob); 0.0625 µg/mL in test [1] (read-out: Colistin MIC, Colistin + 10 ug/ml Ob, A. baumannii ABJZ-45, colistin-resistant, in the presence of 10 ug/ml Ob); 0.5 µg/mL in test [1] (read-out: Colistin MIC, Colistin + 10 ug/ml Ob, A. baumannii ABJZ-46, colistin-resistant, in the presence of 10 ug/ml Ob); 0.25 µg/mL in test [1] (read-out: Colistin MIC, Colistin + 10 ug/ml Ob, A. baumannii ABJZ-50, colistin-resistant, in the presence of 10 ug/ml Ob); 0.125 µg/mL in test [1] (read-out: Colistin MIC, Colistin + 10 ug/ml Ob, A. baumannii ABJZ-72, colistin-resistant, in the presence of 10 ug/ml Ob); 4 µg/mL (≈ 3.46 µM) in test [1] (A. baumannii ABJZ-45, colistin-resistant, colistin alone, read-out: Colistin MIC, Colistin). The MIC in test [1] (A. baumannii ATCC17978, colistin-resistant, colistin alone, read-out: Colistin MIC, Colistin) is 4 µg/mL (≈ 3.46 µM); in test [4] (10 μg/ml of otilonium bromide), at most 0.016 µg/mL; in test [4] (colistin alone), 1 µg/mL. Also, the “live/dead state of cells” value in test [2] was “most or all mcr-1-bearing E. coli strains were alive”. Moreover, the “effect of supplemented Ca2+ and Mg2+ on MIC” value in test [3] and in test [5] was “increase the MIC” throughout. Further, the “size of the viable tolerant population” value in test [6] is listed as 5*10^5 CFU/ml.

The values are drawn from US12220440B2, “Drug composition, method for treating infection, disinfecting composition, and drug adjuvant” (priority 2022, dated 2025).
